Laboratory results taken from patent US10774064B2 (Cadent Therapeutics, Inc., priority 2016, dated 2020).

Biological target: T1, small-conductance Ca2+-activated K+ channels (SK channels, subtype 2) (Homo sapiens, UniProt Q9H2S1)
T1 construct: expressed in transfected cells; host or cells: HEK293
Test: whole-cell patch-clamp of ionic current through SK2 channels in HEK293 cells (SC100)
Format: cell-based
Conditions: whole-cell patch-clamp, HEK293 cells expressing SK2 channels; concentration that increases the basal current by 100%
Method in brief: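 SC100, the concentration doubling basal current (a 100% increase), was taken from SK2 currents recorded by whole-cell patch-clamp in SK2-expressing HEK293 cells.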

Structure (SMILES)	SC100 (μM)
COC(=O)N1CC(Oc2cc(NC3CCC(F)(F)CC3)nc(-c3nc(C)no3)n2)C1 [NSSy5887, methyl 3-((6-((4,4-difluorocyclohexyl)amino)-2-(3-methyl-1,2,4-oxadiazol-5-yl)pyrimidin-4-yl)oxy)azetidine-1-carboxylate]	+ (+ means >1 uM)
Cc1ccn(-c2nc(NC3CCC(F)(F)CC3)cc(OC3CC(F)(F)C3)n2)n1 [NSSy5893, 6-(3,3-difluorocyclobutoxy)-N-(4,4-difluorocyclohexyl)-2-(3-methyl-1H-pyrazol-1-yl)pyrimidin-4-amine]	++ (++ means 200 nM-1000 nM)
Cc1ccn(-c2nc(NC3CCC(F)(F)CC3)cc(OC3CC(C)(O)C3)n2)n1 (stereo not drawn) [NSSy5902, 3-((6-((4,4-difluorocyclohexyl)amino)-2-(3-methyl-1H-pyrazol-1-yl)pyrimidin-4-yl)oxy)-1-methylcyclobutan-1-ol]	++ (++ means 200 nM-1000 nM)
COCc1cc(NC2CCC(F)(F)CC2)nc(-c2nc(C)cs2)c1 [NSSy5933, N-(4,4-difluorocyclohexyl)-4-(methoxymethyl)-6-(4-methylthiazol-2-yl)pyridin-2-amine]	++ (++ means 200 nM-1000 nM)
COC(=O)N1CC(Oc2cc(NC3CCC(F)(F)CC3)cc(-n3ccc(C)n3)c2)C1 [NSSy5934, methyl 3-(3-((4,4-difluorocyclohexyl)amino)-5-(3-methyl-1H-pyrazol-1-yl)phenoxy)azetidine-1-carboxylate]	+ (+ means >1 uM)
Cc1noc(-c2cc(N3CCOCC3)cc(NC3CCC(F)(F)CC3)n2)n1 [NSSy5957]	+ (+ means >1 uM)
COC(=O)N1CC(Oc2cc(NC3CCC(F)(F)CC3)nc(-c3nc(C)no3)c2)C1 [NSSy5959]	+ (+ means >1 uM)
COC(=O)N1CC(Oc2cc(NC3CCC(F)(F)CC3)cc(-c3nc(C)cs3)c2)C1 [NSSy5972, methyl 3-(3-((4,4-difluorocyclohexyl)amino)-5-(4-methylthiazol-2-yl)phenoxy) azetidine-1-carboxylate]	+ (+ means >1 uM)
COC(=O)N1CC(Oc2cc(NC3CC=C(C)CC3)nc(-c3nc(C)cs3)c2)C1 (stereo not drawn) [NSSy5980, methyl 3-((2-((4-methylcyclohex-3-en-1-yl)amino)-6-(4-methylthiazol-2-yl)pyridin-4-yl)oxy)azetidine-1-carboxylate]	++ (++ means 200 nM-1000 nM)
Cc1ccn(-c2cc(COc3ccc(F)cn3)cc(NC3CCC(F)(F)CC3)n2)n1 [NSSy5996]	++ (++ means 200 nM-1000 nM)
Cc1csc(-c2nc(NC3CCC(F)(F)CC3)cc(OC3CCCn4nncc43)n2)n1 (stereo not drawn) [NSSy6007]	++ (++ means 200 nM-1000 nM)
Cc1ccn(-c2cc(CN3CCCC3=O)cc(NC3CCC(F)(F)CC3)n2)n1 [NSSy6019, 1-((2-((4,4-difluorocyclohexyl)amino)-6-(3-methyl-1H-pyrazol-1-yl)pyridin-4-yl)methyl)pyrrolidin-2-one]	++ (++ means 200 nM-1000 nM)
Cc1cc(CN2CCC(F)(F)CC2)cc(-c2nc(C)cs2)c1 [NSSy6044, 2-(3-((4,4-difluoropiperidin-1-yl)methyl)-5-methylphenyl)-4-methyl thiazole]	+ (+ means >1 uM)
[2H]c1c(NC2CCC(F)(F)CC2)nc(-c2nc(C)cs2)nc1OC1CN(C(=O)OC)C1 [NSSy6045, methyl 3-((6-((4,4-difluorocyclohexyl)amino)-2-(4-methylthiazol-2-yl)pyrimidin-4-yl-5-d)oxy) azetidine-1-carboxylate]	+ (+ means >1 uM)
COC(=O)N1CC(Oc2cc(NC3CCC(F)(F)CC3)nc(-c3nc(CO)cs3)n2)C1 [NSSy6049, methyl 3-((6-((4,4-difluorocyclohexyl)amino)-2-(4-(hydroxymethyl)thiazol-2-yl)pyrimidin-4-yl)oxy)azetidine-1-carboxylate]	+ (+ means >1 uM)
COC(=O)N1CC(Oc2cc(NC3CCC(F)(F)CC3)nc(N3CCCC3)n2)C1 [NSSy6054]	+ (+ means >1 uM)
CC(=O)N1CCN(c2cc(NC3CCC(F)(F)CC3)nc(-c3nc(C)cs3)n2)CC1 [NSSy6055]	+++ (+++ means <200 nM)
Cc1csc(-c2nccc(NC3CCC(F)(F)CC3)n2)n1 [NSSy6056, N-(4,4-difluorocyclohexyl)-2-(4-methylthiazol-2-yl)pyrimidin-4-amine]	++ (++ means 200 nM-1000 nM)
COC(=O)N1CC(Oc2ccnc(-c3nc(C)cs3)n2)C1 [NSSy6057]	+ (+ means >1 uM)
COC(=O)N1CC(Oc2cc(NC3CCC(F)(F)CC3)ncn2)C1 [NSSy6061, methyl 3-((6-((4,4-difluorocyclohexyl)amino)pyrimidin-4-yl)oxy) azetidine-1-carboxylate]	+ (+ means >1 uM)
Cc1csc(-c2nc(NC3CCC(F)(F)CC3)cc(N3CCS(=O)(=O)CC3)n2)n1 [NSSy6062]	+++ (+++ means <200 nM)
Cc1cnc(-c2nc(NC3CCC(F)(F)CC3)cc(N3CCOCC3)n2)s1 [NSSy6067, N-(4,4-difluorocyclohexyl)-2-(5-methylthiazol-2-yl)-6-morpholinopyrimidin-4-amine]	+ (+ means >1 uM)
COC(=O)N1CC(Oc2cc(NC3CCC(F)(F)CC3)[n+]([O-])c(-n3ccc(C)n3)n2)C1 [NSSy6072, 6-((4,4-difluorocyclohexyl)amino)-4-((1-(methoxycarbonyl)azetidin-3-yl)oxy)-2-(3-methyl-1H-pyrazol-1-yl)pyrimidine 1-oxide]	+ (+ means >1 uM)
COC(=O)N1CC(Oc2cc(NC3CCC(C(F)(F)F)CC3)nc(-c3nc(C)cs3)n2)C1 (stereo not drawn) [NSSy6078, methyl 3-((2-(4-methylthiazol-2-yl)-6-((4-(trifluoromethyl)cyclohexyl)amino)pyrimidin-4-yl)oxy) azetidine-1-carboxylate]	+ (+ means >1 uM)

Structure (SMILES)	SC100 (μM)
Cc1csc(-c2nc(O)cc(NC3CCC(F)(F)CC3)n2)n1 [NSSy6082, 6-((4,4-difluorocyclohexyl)amino)-2-(4-methylthiazol-2-yl)pyrimidin-4-ol]	+ (+ means >1 uM)
COC(=O)N1CC(Oc2cc(NC3C4CC5CC(C4)CC3C5)nc(-n3ccc(C)n3)n2)C1 (stereo not drawn) [NSSy6091]	++ (++ means 200 nM-1000 nM)
Cc1csc(-c2nc(NC3CCC(F)(F)CC3)cc(N3CCN(C)C(=O)C3)n2)n1 [NSSy6093]	++ (++ means 200 nM-1000 nM)
COC(=O)N1CC(Oc2cc(NC34CC5CC(CC(C5)C3)C4)nc(-n3ccc(C)n3)n2)C1 [NSSy6097]	+++ (+++ means <200 nM)
COC(=O)N1CC(Oc2cc(NC3CCCCC3)nc(-c3nc(C)cs3)n2)C1 [NSSy6099]	+++ (+++ means <200 nM)
COCC1CN(c2cc(NC3CCCCC3)nc(-c3nc(C)cs3)n2)CCO1 (stereo not drawn) [NSSy6100]	++ (++ means 200 nM-1000 nM)
COC(=O)N1CC(Oc2cc(N(C)C3CCC(F)(F)CC3)nc(-c3nc(C)cs3)n2)C1 [NSSy6105, methyl 3-((6-((4,4-difluorocyclohexyl) (methyl)amino)-2-(4-methylthiazol-2-yl)pyrimidin-4-yl)oxy) azetidine-1-carboxylate]	+ (+ means >1 uM)
Cc1ccn(-c2nc(NC3CCC(F)(F)CC3)cc(N3CCS(=O)(=O)CC3)n2)n1 [NSSy6111]	++ (++ means 200 nM-1000 nM)
COC[C@H]1CN(c2cc(NC3CCCCC3)nc(-c3nc(C)cs3)n2)CCO1 [NSSy6115]	++ (++ means 200 nM-1000 nM)
Cc1csc(-c2nc(NC3CCC(F)(F)CC3)cc(N3CC4CC3CO4)n2)n1 (stereo not drawn) [NSSy6116]	++ (++ means 200 nM-1000 nM)
COC[C@@H]1CN(c2cc(NC3CCCCC3)nc(-c3nc(C)cs3)n2)CCO1 [NSSy6124]	++ (++ means 200 nM-1000 nM)
Cc1nsc(-c2nc(NC3CCC(F)(F)CC3)cc(N3CCS(=O)(=O)CC3)n2)n1 [NSSy6125]	++ (++ means 200 nM-1000 nM)
COC(=O)N1CC(Oc2cc(N3CC4(CCCCC4)C3)nc(-c3nc(C)cs3)n2)C1 [NSSy6126]	+ (+ means >1 uM)
COC(=O)N1CC(Oc2cc(NC3C4CC3C4)nc(-n3ccc(C)n3)n2)C1 (stereo not drawn) [NSSy6127]	+ (+ means >1 uM)
Cc1csc(-c2nc(NC3CCC(F)(F)CC3)cc(N3CC4CCC(C3)O4)n2)n1 [NSSy6129]	++ (++ means 200 nM-1000 nM)
Cc1csc(-c2nc(NC3CCCCC3)cc(N3CCS(=O)(=O)CC3)n2)n1 [NSSy6131]	+++ (+++ means <200 nM)
COC(=O)N1CC(Oc2cc(NC3CCC(F)(F)CC3)nc(-c3csc(C)n3)n2)C1 [NSSy6132]	+ (+ means >1 uM)
COC(=O)N1CC(Oc2cc(NC3CCCCC3)nc(-c3csc(C)n3)n2)C1 [NSSy6133]	+ (+ means >1 uM)
Cc1nc(-c2nc(NC3CCCCC3)cc(N3CCS(=O)(=O)CC3)n2)cs1 [NSSy6134]	+ (+ means >1 uM)
Cc1nsc(-c2nc(NC3CCC(F)(F)CC3)cc(N3CC4(COC4)C3)n2)n1 [NSSy6145]	+ (+ means >1 uM)
Cc1csc(-c2nc(NC3CCCCC3)cc(N3CCN(C4COC4)CC3)n2)n1 [NSSy6149]	++ (++ means 200 nM-1000 nM)
FC1(F)CCC(Nc2cc(N3CCOCC3)nc(-c3nccs3)n2)CC1 [NSSy6152]	+ (+ means >1 uM)
COC(=O)N1CC(Oc2cc(NC3CCC(F)(F)CC3)nc(-n3ccc(F)n3)n2)C1 [NSSy6162]	++ (++ means 200 nM-1000 nM)
Cc1nc(-c2nc(NC3CCC(F)(F)CC3)cc(N3CCS(=O)(=O)CC3)n2)cs1 [NSSy6165]	+ (+ means >1 uM)
